Measurements as given in patent US20120028917A1, “Use Of N-(4-((3-(2-Amino-4-Pyrimidinyl)-2-Pyridinyl)Oxy)Phenyl)-4-(4-Methyl-2-Thienyl)-1-Phthalazinamine In The Treatment Of Antimitotic Agent Resistant Cancer” (Amgen Inc., priority 2009, published 2012).
Values joined by “and” are separate entries in the source; they are usually repeats but may differ in a detail not shown here. Identical values can stand only once. Marks after values point to notes of the source that are not given here.

Key:
COLO 205 xenograft = assay: Xenograft tumor growth inhibition (Example 7); assay type: in vivo, mice; conditions: COLO 205, Colon; oral 15 mg/kg b.i.d. 2 consecutive days per week or 3 mg/kg b.i.d. every day, 3 weeks
Method: (§1) The in-vivo effect of AMG 900 on tumor growth was further evaluated in a panel of human xenografts from five different tumor types (breast, colon, lung, pancreatic, and uterine), including three MDR xenograft models. Mice bearing established tumors were orally administered AMG 900 at 15 mg/kg b.i.d. for 2 consecutive days per week for 3 weeks or at 3 mg/kg b.i.d. every day for 3 weeks. The maximum percentage of tumor growth inhibition (TGI) is reported, in Table 7 below, for each xenograft model. The percentage of TGI was calculated as the difference between the change in vehicle-treated control and AMG 900-treated tumor volumes during the study period.

HCT-15 (MDR) xenograft = assay: Xenograft tumor growth inhibition (Example 7); assay type: in vivo, mice; conditions: Colon, oral 15 mg/kg b.i.d. 2 consecutive days per week or 3 mg/kg b.i.d. every day, 3 weeks
Method: as §1

MDA-MB-231 xenograft = assay: Xenograft tumor growth inhibition (Example 7); assay type: in vivo, mice; conditions: MDA-MB-231, Breast; oral 15 mg/kg b.i.d. 2 consecutive days per week or 3 mg/kg b.i.d. every day, 3 weeks
Method: as §1

MES-SA xenograft = assay: Xenograft tumor growth inhibition (Example 7); assay type: in vivo, mice; conditions: Uterine, oral 15 mg/kg b.i.d. 2 consecutive days per week or 3 mg/kg b.i.d. every day, 3 weeks
Method: as §1

[1] = system: MES-SA-Dx5 (MDR) xenograft; assay: Xenograft tumor growth inhibition (Example 7); assay type: in vivo, mice; conditions: Uterine, oral 15 mg/kg b.i.d. 2 consecutive days per week or 3 mg/kg b.i.d. every day, 3 weeks
Method: as §1

MiaPaCa2 xenograft = assay: Xenograft tumor growth inhibition (Example 7); assay type: in vivo, mice; conditions: MiaPaCa2, Pancreas; oral 15 mg/kg b.i.d. 2 consecutive days per week or 3 mg/kg b.i.d. every day, 3 weeks
Method: as §1

NCI-H460 xenograft = assay: Xenograft tumor growth inhibition (Example 7); assay type: in vivo, mice; conditions: NCI-H460, Lung; oral 15 mg/kg b.i.d. 2 consecutive days per week or 3 mg/kg b.i.d. every day, 3 weeks
Method: as §1

[2] = system: NCI-H460-PTX (MDR) xenograft; assay: Xenograft tumor growth inhibition (Example 7); assay type: in vivo, mice; conditions: Lung, oral 15 mg/kg b.i.d. 2 consecutive days per week or 3 mg/kg b.i.d. every day, 3 weeks
Method: as §1

[3] = system: three matched taxol-resistant and -sensitive tumor cell lines; assay: Matched taxol-resistant and -sensitive tumor cell lines (summary); assay type: cell-based; conditions: Homo sapiens; all three matched taxol-resistant and -sensitive tumor cell lines
Method: MES-SA Dx5 and MES-SA cells were plated at a density of 10,000 cells/well onto 96-well plate in complete media and cultured for 24 hours. […] Cells were washed and fixed by adding 100 μL of 2× formaldehyde fixation buffer for 10 minutes and room temperature. […] Cells were immunostained with p-histone H3 antibody (5 μg/mL) and incubated at room temperature for 2 hours. Cells were washed in 100 μL of wash buffer. Next, cells were incubated with a goat anti-rabbit alexa-488 conjugated antibody (1.5 μg/mL) in wash buffer supplemented with Hoechest DNA dye (1 μg/mL) and incubated at room temperature in the dark for 30 minutes. Cells were washed twice with 100 μL of wash buffer. The 96-well plates were analyzed on an ArrayScan VTi (Cellomics) using a bioapplication algorithm (TargetActivation.V2). […] NCI-H460 parental and NCI-H460 taxol-resistant cells were seeded at a density of 500,000 cells/well in a 6-well plate in 2 mL of appropriate complete media. The next day cells were treated with AMG 900 or taxol over a 6-point concentration range with a final DMSO concentration of 0.05% in media. After 24 hours, cells were pulsed with BrdU (1:100 dilution) and harvested. […] Data was acquired and analyzed by flow cytomety (LSRII). […] The +4N (same as ≧4N) DNA content or SubG1 cellular EC50 values were calculated using a 4-parameter equation. […] Data was acquired and analyzed by flow cytometry (LSRII). […]

EC50 [3]: < 2 nM
Compound: Cc1csc(-c2nnc(Nc3ccc(Oc4ncccc4-c4ccnc(N)n4)cc3)c3ccccc23)c1 [AMG 900, N-(4-((3-(2-amino-4-pyrimidinyl)-2-pyridinyl)oxy)phenyl)-4-(4-methyl-2-thienyl)-1-phthalazinamine]
Maximum TGI (%) (COLO 205 xenograft): 73* %
Maximum TGI (%) (HCT-15 (MDR) xenograft): 50* %
Maximum TGI (%) (MDA-MB-231 xenograft): 82** %
Maximum TGI (%) (MES-SA xenograft): 87** %
Maximum TGI (%) [1]: 84%
Maximum TGI (%) (MiaPaCa2 xenograft): 60** %
Maximum TGI (%) (NCI-H460 xenograft): 85** %
Maximum TGI (%) [2]: 66% and 65** %
